These results are taken from ChEMBL document CHEMBL1158904, “New metabolites from the sponge Spongia agaricina” (J Nat Prod, 1998).

In brackets after ≈: the same amount, converted by molar mass.

Common to all, as to assay type: functional, cell-based
In experiment [1] the test system is A549. Kind of experiment: Cytotoxicity against human A549 cells.
The subject of experiment [2] is SK-MEL-28. The experiment in a line: Cytotoxicity against human SK-MEL-28 cells.
The subject of experiment [3] is HT-29. The experiment in a line: Cytotoxicity against human HT-29 cells.
Experiment [4] deals with P388. Kind of experiment: Cytotoxicity against mouse P388 cells.

For `C=C(CC[C@@H](C)[C@H]1CC[C@@H](C2=C[C@@H]3O[C@@]34C[C@@H](O)CC[C@]4(C)C2=O)[C@]1(C)CC=O)C(C)C`, the IC50 in experiment [1], in experiment [2], in experiment [3] and in experiment [4] was 1 µg/mL (≈ 2.26 µM) in each case.

Consider `CC(=O)O[C@@H]1C[C@H]2[C@]3(C)CC[C@H]4C(C)(C)CCC[C@]4(C)[C@H]3C[C@@H](O)[C@]2(C)c2occc21`, for which the IC50 in experiment [1], in experiment [2], in experiment [3] and in experiment [4] was 1 µg/mL (≈ 2.33 µM) in each case.

As to `CC(=O)O[C@H]1C[C@H]2[C@]3(C)CC[C@H]4C(C)(C)CCC[C@]4(C)[C@H]3C[C@@H](O)[C@]2(C)[C@H]2OC(=O)C=C12`, the IC50 in experiment [1], in experiment [2], in experiment [3] and in experiment [4] was 5 µg/mL (≈ 11.2 µM) throughout.

As for `CC(C)[C@@H](C)/C=C/[C@@H](C)[C@H]1CC[C@@H](C2=C[C@@H]3O[C@@]34C[C@@H](O)CC[C@]4(C)C2=O)[C@]1(C)CC=O` [3-O-DEACETYLLUFFASTEROL B], the IC50 in experiment [1], in experiment [2], in experiment [3] and in experiment [4] was 1 µg/mL (≈ 2.26 µM) each time.
